# Laboratory results as given in ChEMBL document CHEMBL1138967, “Design, synthesis, and biological evaluation of novel tricyclic HIV-1 integrase inhibitors by modification of its pyridine ring” (Bioorg Med Chem Lett, 2006).
# Experiments:
# MT4 = assay: Cytotoxicity against MT4 cells; assay type: functional; conditions: Homo sapiens
# [1] = biological target: Human immunodeficiency virus type 1 integrase (Human immunodeficiency virus 1, UniProt Q7ZJM1); assay: Inhibition of strand transfer activity in HIV1 integrase
# Chain of Human immunodeficiency virus type 1 integrase (Q7ZJM1 whole entry): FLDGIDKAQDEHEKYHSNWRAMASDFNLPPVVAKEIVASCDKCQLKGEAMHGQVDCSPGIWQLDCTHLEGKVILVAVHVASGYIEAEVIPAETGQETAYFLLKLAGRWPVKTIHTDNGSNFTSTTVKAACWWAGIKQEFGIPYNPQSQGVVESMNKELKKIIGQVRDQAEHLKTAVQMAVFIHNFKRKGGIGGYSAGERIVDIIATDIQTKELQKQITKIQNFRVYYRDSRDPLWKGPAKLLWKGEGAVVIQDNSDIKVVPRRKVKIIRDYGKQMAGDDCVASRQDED
# [2] = test system: Human immunodeficiency virus 1; assay: Antiviral activity against HIV1 3B in MT4 cells; assay type: functional, organism-based; conditions: Human immunodeficiency virus 1, 3B
SMILES,CC50 (MT4) [µM],IC50 [1] [µM],EC50 [2] [µM],IC50 [2] [µM]
COc1c2c(c(O)c3ncccc13)C(=O)N(Cc1ccc(F)cc1)C2,5.1,–,–,–
COc1c2c(c(O)c3nccnc13)C(=O)N(Cc1ccc(F)cc1)C2,87,0.21,3.55,–
COc1c2c(c(O)c3ncc(F)cc13)C(=O)N(Cc1ccc(F)cc1)C2,33.3,0.0072,–,1.54
CN(C)S(=O)(=O)Oc1c2c(c(O)c3nccnc13)C(=O)N(Cc1ccc(F)cc1)C2,2.7,0.033,0.54,–
COc1c2c(c(O)c3ncn(Cc4ccccc4)c13)C(=O)N(Cc1ccc(F)cc1)C2,25,24,–,> 10
CN(C)S(=O)(=O)Oc1c2c(c(O)c3ncccc13)C(=O)N(Cc1ccc(F)cc1)C2,1.4,–,0.007,–
COc1c2c(c(O)c3c1NCCN3)C(=O)N(Cc1ccc(F)cc1)C2,–,0.85,–,> 10
COc1cnc2c(O)c3c(c(OC)c2c1)CN(Cc1ccc(F)cc1)C3=O,2.1,0.093,0.07,–
